Source: article PMC9157728, “Albumin Binder–Conjugated Fibroblast Activation Protein Inhibitor Radiopharmaceuticals for Cancer Therapy” (Journal of Nuclear Medicine, 2022)
Where two headings read alike, the source gives them in different places.

Assays:
[1] = system: pancreatic cancer PDX tumors; assay: Static PET imaging in pancreatic cancer PDX-bearing mice; type: in vivo; details: for peak tumor SUVmean / time of peak tumor SUVmean after injection: ^86Y PET; for tumor area under the curve relative to FAPI-04: ^86Y PET tumor SUVmean curve
Experimental: (§1) All animal care and experimental procedures were performed by following the animal protocols (CCME-LiuZB-2) approved by the ethics committee of Peking University. The mice were from the Beijing Vital River Laboratory Animal Technology Co., Ltd. For cell-line–derived xenograft models, 5 × 10^6 HT-1080-FAP or HT-1080 cells were subcutaneously inoculated into the right shoulder of 6-wk-old female nu/nu-mice. To establish the patient-derived xenograft (PDX) model, tumor specimens were obtained from patients who underwent presurgical ^68Ga-FAPI-04 PET/CT imaging to confirm that the tumor was FAP-positive. After surgical resection, the tumor specimens were immediately placed in ready-to-use fresh tissue preservation solution (TM2701-100) and transported under refrigerated conditions within 2 h. The research protocol was approved by the Institutional Ethics Committee of Peking Union Medical College Hospital (JS-2628). Six-week-old female nonobese diabetic/severe combined immunodeficiency (NOD/SCID) mice were used to establish the PDX models. After being removed from the preservation solution, the tumor specimens were immediately immersed in sterile PBS solution and minced with scissors, and the fragments were then implanted subcutaneously into the left and right shoulders of the mice, which were anesthetized with isoflurane in advance. Engraftment efficiency was determined by ^68Ga-FAPI-04 PET/CT imaging (Supplemental Fig. 21A).
All PET scans were performed on a Mediso nanoScan PET 122S small-animal PET/CT imaging system. For the 60-min dynamic PET scan, 29.6–37.0 MBq of ^68Ga-TEFAPI-06 or ^68Ga-TEFAPI-07 were given to healthy NOD/SCID mice through tail-vein injection. The static PET imaging was performed on mice bearing pancreatic PDX tumors, HT-1080-FAP tumors, and HT-1080 tumors at the indicated time points after intravenous injection of 7.4–11.1 MBq of ^86Y-FAPI-04,^86Y-TEFAPI-06, or ^86Y-TEFAPI-07.

[2] = system: HT-1080-FAP and HT-1080 tumors; assay: PET imaging of HT-1080-FAP and HT-1080 tumor-bearing mice; type: in vivo; details: ^86Y PET, tumor-bearing nu/nu mice
Experimental: as §1, with “After being removed from the preservation solution, the tumor specimens were immediately immersed in sterile PBS solution and minced with scissors, and the fragments were then implanted subcutaneously into the left and right shoulders of the mice, which were anesthetized with isoflurane in advance.” left out, “21A). […]” for “21A).”

HT-1080-FAP cells = assay: Cellular uptake assay in HT-1080-FAP cells; type: cell-based, human
HT-1080 cells = assay: Cellular uptake assay in HT-1080 cells; type: cell-based, human; details: HT-1080 cells (FAP-negative)
Experimental: (§2) The human fibrosarcoma cell line (HT-1080), and the HT-1080 cell line transfected with human FAP gene (HT-1080-FAP, from WuXi AppTec), were cultivated in Eagle minimum essential medium containing 10% fetal bovine serum, 1% antibiotic–antimycotic, and a 4 μg/mL concentration of blasticidin S at 37°C under conditions of 5% carbon dioxide. For competition assays, HT-1080-FAP cells were seeded in 6-well plates and cultivated until they reached about 1.2 × 10^6 cells per well. The cells were incubated simultaneously with unlabeled FAPI-04, TEFAPI-06, or TEFAPI-07 (10^−5–10^−9 M) with ^68Ga-FAPI-04 in 1 mL of fresh medium without fetal bovine serum for 1 h. The medium was removed, and the cells were washed twice with phosphate-buffered saline (PBS). Subsequently, the cells were lysed with 0.5 mL of 1 M NaOH and washed with 0.5 mL of PBS twice, and the NaOH (0.5 mL) and PBS (0.5 mL × 2) were collected to determine the uptake counts. For saturation binding assays, HT-1080-FAP and HT-1080 cells were seeded in 24-well plates and cultivated until they reached about 2 × 10^5 cells per well. ^68Ga-FAPI-04, ^68Ga-TEFAPI-06, or ^68Ga-TEFAPI-07 was diluted to a concentration 0.01–200 nM in fresh medium without fetal bovine serum. The cells were incubated in the above solution for 1 h and then washed twice with PBS. The lysed cells and the PBS for washing were collected to determine the counts.

[3] = Dynamic PET imaging in healthy NOD/SCID mice (heart/blood signal); type: in vivo; details: for time of peak signal in heart after injection: dynamic PET
FAP [4] = biological target: T1, FAP (Homo sapiens, UniProt Q12884); assay: Saturation binding assay of ^68Ga-labeled tracers in HT-1080-FAP and HT-1080 cells; design: host or cells: HT-1080 human fibrosarcoma cells (HT-1080-FAP)
T1 sequence (Q12884 1-760): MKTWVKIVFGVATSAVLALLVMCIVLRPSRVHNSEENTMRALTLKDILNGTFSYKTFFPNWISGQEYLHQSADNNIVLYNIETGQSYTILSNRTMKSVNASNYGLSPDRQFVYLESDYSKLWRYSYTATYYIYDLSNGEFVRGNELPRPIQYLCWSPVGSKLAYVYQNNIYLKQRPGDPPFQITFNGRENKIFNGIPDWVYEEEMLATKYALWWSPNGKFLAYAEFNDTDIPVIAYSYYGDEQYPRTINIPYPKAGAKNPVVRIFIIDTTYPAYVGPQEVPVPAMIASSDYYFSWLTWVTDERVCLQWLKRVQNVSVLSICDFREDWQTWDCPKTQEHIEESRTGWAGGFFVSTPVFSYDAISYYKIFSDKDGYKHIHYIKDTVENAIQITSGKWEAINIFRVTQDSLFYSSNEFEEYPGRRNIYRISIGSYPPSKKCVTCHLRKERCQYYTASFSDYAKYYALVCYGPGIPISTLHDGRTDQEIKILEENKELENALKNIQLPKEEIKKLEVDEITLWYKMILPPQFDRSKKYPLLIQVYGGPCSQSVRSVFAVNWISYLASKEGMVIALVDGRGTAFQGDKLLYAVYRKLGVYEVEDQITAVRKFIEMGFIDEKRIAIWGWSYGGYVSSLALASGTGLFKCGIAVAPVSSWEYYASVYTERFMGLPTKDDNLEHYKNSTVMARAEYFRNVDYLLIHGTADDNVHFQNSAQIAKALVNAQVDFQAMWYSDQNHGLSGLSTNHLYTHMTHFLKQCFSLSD
Experimental: as §2

FAP [5] = biological target: T1, FAP; assay: Blocking study in vivo with cold ligand; design: from tissue; host or cells: tumour in tumour-bearing mice; species or system mice; details: 12 h and 24 h after treatment with cold ligand
FAP [6] = biological target: T1, FAP; assay: Competition assay against ^68Ga-FAPI-04 in HT-1080-FAP cells; type: binding; design: host or cells: HT-1080 human fibrosarcoma cells (HT-1080-FAP)
Experimental: as §2

[7] = ^68Ga-labeled tracer, 0.01-200 nM, 1 h, medium without FBS, read-out: dissociation constant (Kd)
[8] = 0.05% human serum albumin, read-out: half-maximal inhibitory concentration in the presence of albumin
[9] = HT-1080-FAP cells, unlabeled ligand vs ^68Ga-FAPI-04, 1 h, medium without FBS, read-out: half-maximal inhibitory concentration (IC50)
[10] = binding assays in 0.05% human serum albumin, sentence prints 'in the absence of albumin', read-out: dissociation constant, binding assays in 0.05% human serum albumin

tumor SUVmean at 36 h after injection [1] | peak tumor SUVmean [1] | time of peak tumor SUVmean after injection [1] | decrease of heart signal from 10 to 60 min after injection [3] | decrease of heart signal from 10 to 240 min after injection [3] | decrease of heart signal from 60 to 240 min after injection [3] | time of peak signal in heart after injection [3] | Kd (FAP [4]; [7]) | tumor area under the curve relative to FAPI-04 [1] | tumor uptake after treatment with cold ligand (blocking) (FAP [5]) | IC50 (FAP [6]; [8]) | IC50 (FAP [6]; [9]) | Kd (FAP [4]; [10]) | Structure (SMILES) | uptake in HT-1080-FAP tumors relative to HT-1080 tumors [2] | cellular uptake in HT-1080-FAP cells (HT-1080-FAP cells) | cellular uptake in HT-1080 cells (HT-1080 cells)
0.606 | 0.81 | 8 h |  |  |  |  |  |  |  |  |  |  | Cc1cc(-c2ccc(NC(=O)CCCC(=O)N[C@@H](CCCCNC(=O)CN3CCN(CC(=O)[O-])CCN(CC(=O)[O-])CCN(CC(=O)[O-])CC3)C(=O)N3CCN(CCCOc4ccc5nccc(C(=O)NCC(=O)N6CC(F)(F)C[C@H]6C#N)c5c4)CC3)c(C)c2)ccc1N=Nc1ccc2c(S(=O)(=O)O)cc(S(=O)(=O)O)c(N)c2c1O.[86Y+3] [^86Y-TEFAPI-07] | 2- to 6 fold |  | 
 |  |  | 35.70% ± 4.74% | 56.18% ± 2.50% | 31.80% ± 1.15% | about 2 min | 10.2 ± 2.56 nM |  |  |  |  |  | N#C[C@@H]1CC(F)(F)CN1C(=O)CNC(=O)c1ccnc2ccc(OCCCN3CCN(C(=O)[C@H](CCCCNC(=O)CN4CCN(CC(=O)[O-])CCN(CC(=O)[O-])CCN(CC(=O)[O-])CC4)NC(=O)CCCC(=O)NC(CCCCNC(=O)CCCc4ccc(I)cc4)C(=O)O)CC3)cc12.[68Ga+3] (stereo partly shown) [^68Ga-TEFAPI-06] |  | significant uptake | almost negligible uptake
 |  |  | 23.15% ± 2.16% | 54.28% ± 4.98% | 40.56% ± 5.25% | about 2 min | 7.81 ± 2.28 nM |  |  |  |  |  | Cc1cc(-c2ccc(NC(=O)CCCC(=O)N[C@@H](CCCCNC(=O)CN3CCN(CC(=O)[O-])CCN(CC(=O)[O-])CCN(CC(=O)[O-])CC3)C(=O)N3CCN(CCCOc4ccc5nccc(C(=O)NCC(=O)N6CC(F)(F)C[C@H]6C#N)c5c4)CC3)c(C)c2)ccc1N=Nc1ccc2c(S(=O)(=O)O)cc(S(=O)(=O)O)c(N)c2c1O.[68Ga+3] [^68Ga-TEFAPI-07] |  | significant uptake | almost negligible uptake
 |  |  |  |  |  |  | 7.81 ± 2.28 nM | 35.5 fold | tumor uptake decreased | 27.7 ± 5 nM | 17 ± 1.43 nM | 19.1 ± 5.54 nM | Cc1cc(-c2ccc(NC(=O)CCCC(=O)N[C@@H](CCCCNC(=O)CN3CCN(CC(=O)O)CCN(CC(=O)O)CCN(CC(=O)O)CC3)C(=O)N3CCN(CCCOc4ccc5nccc(C(=O)NCC(=O)N6CC(F)(F)C[C@H]6C#N)c5c4)CC3)c(C)c2)ccc1N=Nc1ccc2c(S(=O)(=O)O)cc(S(=O)(=O)O)c(N)c2c1O [TEFAPI-07] |  |  | 
 |  |  |  |  |  |  | 10.2 ± 2.56 nM | 37.9 fold | tumor uptake decreased | 11.4 ± 1.15 nM | 12.2 ± 0.65 nM | 4.37 ± 0.81 nM | N#C[C@@H]1CC(F)(F)CN1C(=O)CNC(=O)c1ccnc2ccc(OCCCN3CCN(C(=O)[C@H](CCCCNC(=O)CN4CCN(CC(=O)O)CCN(CC(=O)O)CCN(CC(=O)O)CC4)NC(=O)CCCC(=O)NC(CCCCNC(=O)CCCc4ccc(I)cc4)C(=O)O)CC3)cc12 (stereo partly shown) [TEFAPI-06] |  |  | 
0.602 | 0.73 | 18 h |  |  |  |  |  |  |  |  |  |  | N#C[C@@H]1CC(F)(F)CN1C(=O)CNC(=O)c1ccnc2ccc(OCCCN3CCN(C(=O)[C@H](CCCCNC(=O)CN4CCN(CC(=O)[O-])CCN(CC(=O)[O-])CCN(CC(=O)[O-])CC4)NC(=O)CCCC(=O)NC(CCCCNC(=O)CCCc4ccc(I)cc4)C(=O)O)CC3)cc12.[86Y+3] (stereo partly shown) [^86Y-TEFAPI-06] | 2- to 6 fold |  | 
